Test results: BindingDB's records for doi:10.7270/Q2S180TW (Burnham Center For Chemical Genomics, 2008)

Target: Heat shock 70 kDa protein 1A (Homo sapiens, UniProt V9GZ37)
Assay: small molecules displacing fluorescent ligand from Hsp70 – biochemical, fluorescence polarization, primary screen (AID 583)
Details: pH 7; 23 °C

Sequence of Heat shock 70 kDa protein 1A (V9GZ37 whole entry): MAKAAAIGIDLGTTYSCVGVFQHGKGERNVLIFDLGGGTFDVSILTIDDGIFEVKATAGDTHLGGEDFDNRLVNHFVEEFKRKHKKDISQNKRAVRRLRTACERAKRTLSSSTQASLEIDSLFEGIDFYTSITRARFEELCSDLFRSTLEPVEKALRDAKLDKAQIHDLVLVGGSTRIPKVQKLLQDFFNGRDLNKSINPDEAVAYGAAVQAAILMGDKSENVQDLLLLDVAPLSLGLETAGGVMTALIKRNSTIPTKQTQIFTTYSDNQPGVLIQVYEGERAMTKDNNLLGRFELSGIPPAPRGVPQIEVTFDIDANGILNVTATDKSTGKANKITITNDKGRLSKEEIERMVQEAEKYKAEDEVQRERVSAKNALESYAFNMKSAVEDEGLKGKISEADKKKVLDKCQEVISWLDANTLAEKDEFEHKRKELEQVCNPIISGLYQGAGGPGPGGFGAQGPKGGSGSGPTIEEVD

Row | SMILES | IC50
1 | CC(=O)N1CCC2(CC1)c1c(n[nH]c1C)OC(=N)C2C#N (configuration not stated) [6-azanyl-1'-ethanoyl-3-methyl-spiro[2H-pyrano[2,3-c]pyrazole-4,4'-piperidine]-5-carbonitrile] | 100 µM
2 | C=c1[nH]n(-c2cccc(C(=O)O)c2)c(=O)c1=CC=Cc1ccco1 [SMR000113614] | 21.7 µM
